Assay results: US20260207788A1, “HEAVY ISOTOPE 3-BP MOLECULES, COMPOSITIONS, AND TREATMENTS” (KODISCOVERY, LLC, priority 2022, published 2026)
Where two headings read alike, the source gives them in different places.

How the values were obtained:
Assay type in all cases: cell-based
Panc-2 cells [1] = test: MTS assay, percent viability of Panc-2 cells; conditions: 40 μM; for cells killed in terms of MTT: time not given; for cell death (cells killed) in terms of MTT: after 8 hours
Panc-2 cells [2] = test: ATP assay (cell titer Glo2.0), ATP generation in panc-2 cells; conditions: 40 μM; for cells killed in terms of ATP generation: time not given
Description: (§1) In current study we have tested anti-tumor potency of 7, 3-BP analogues employing MTS and ATP assay. The percent viability of Pan-2 cells was determined in presence of graded concentration of 3BP analogues 0, 1, 2, 3, 4, 5, 6 & 7.
For ATP assay panc2 cells (2×10^3/in 100 ul media) were seeded in each well of 96 well luminescence plate (Corning, USA) for 12 hours in media described above. Cells were treated with KAT 0, 5, 20, 40, 80, 100 for 1, 2, 4, 8 hours. In separate experiments, cells were treated with KAT 40, 60 μM for 15, 30 & 60 min. At the end of each treatment, 100 ul ATP assay reagent cell titer Glo2.0 (Promega, USA) was added in each well, shacked on a rotating shaker for 2 mins, incubated at room temperature for 10 mins in dark and luminescence was measured with BIOTEK synergy HT.

Panc-2 cells [3] = test: MTS assay, percent viability of Panc-2 cells; conditions: for viability at 40 µM / viability at 80 µM / viability at 100 µM: read-out: percent viability of Panc-2 cells; for cell death: time not given
Description: as §1
Panc2 cells were seeded in either 6 well plate (6-6.5×10^4 cells/well/2 ml media) or in 12 well plate (3-3.5×10^4/1 ml media) or in 96 well plate ([…] /well/100 ul) in RPMI 1640 with 10% FBS, 0.5% antibiotic media for about 12 hours, in CO2 cell culture incubator at 37 °C. The cells were treated initially with KAT 0, 5, 20, 40, 80 and 100 uM for 1, 2, 4, 8 hours and latter in separate experiments with 40 and 60 µM for 15, 30, 1 hour. For each treatment KAT was added in a volume maximum 10 ul. For control same amount of KAT buffer was used. At the end of each time point treatment MTS reagent (Cell titer 96 aqueous one solution, Promega, USA) was added to each well according to the manufacturer instruction and incubated for approx. 2 hours. After that 100 ul from each well was transferred to 96 well plate (quartiles for each treatment) and measured absorbance at 490 nm with BIOTEK synergy HT. For 96 well plate reagent was added directly to each well, incubated for 2 hours and measured absorbance at 490 nm.

Panc-2 cells [4] = test: Imaging of morphology of treated panc-2 cells

Compound | cells killed in terms of MTT (Panc-2 cells [1]) | ATP generation (Panc-2 cells [2]; 1 hour treatment) | ATP generation (Panc-2 cells [2]; after 8 hours) | cells killed in terms of ATP generation (Panc-2 cells [2]) | viability at 40 µM (Panc-2 cells [3]; 1 h) [%] | viability at 40 µM (Panc-2 cells [3]; 8 h) [%] | cell morphology (Panc-2 cells [4]; 40 μM, after 8 hours) | cells killed (Panc-2 cells [3]; 80 μM, 1 hour treatment) | cell death (cells killed) in terms of MTT (Panc-2 cells [1]) | cell death (cells killed) in terms of ATP generation (Panc-2 cells [2]; after 8 hours) | other results
OC(=[18O])C(=[18O])CBr [Molecule 5] | about 81% | about 69% | about 26% | about 74% | ~48 | ~19 | rounding and membrane blabbing |  |  |  | viability at 80 µM (Panc-2 cells [3]; 1 h): ~6%; viability at 100 µM (Panc-2 cells [3]): ~2%
[2H]C([2H])(Br)C(=O)C(=O)O [Molecule 4] | 32-40% | 91% | about 76% | 32-40% | ~58 | ~60 |  | about 99% |  |  | cell death (Panc-2 cells [3]; 100 μM): about 100%; cell morphology (Panc-2 cells [4]; 80 μM, after 2 hours): rounding and membrane blabbing
O=C(O)[13C](=O)CBr [Molecule 2] | 40% | 83% | 68% | 32% | ~52 | ~60 |  |  |  |  | cells killed (Panc-2 cells [3]; 80 μM, 4 hour treatment): about 99%; viability at 100 µM (Panc-2 cells [3]): ~0%; cell morphology (Panc-2 cells [4]; 80 μM, time not given): rounding and membrane blabbing
O=C(O)C(=O)[13CH2]Br [Molecule 3] | about 54% | about 80% | about 66% | about 34% | ~62 | ~46 | rounding and membrane blabbing | ~88% |  |  | viability at 100 µM (Panc-2 cells [3]; 1 h): ~5%
O=[13C](O)[13C](=O)[13CH2]Br [Molecule 6] |  | 73% | 26% |  | ~66 | ~57 | rounding and membrane blabbing |  | about 43% | about 74% | viability at 80 µM (Panc-2 cells [3]; 1 h): ~32%; viability at 100 µM (Panc-2 cells [3]; 1 h): ~28%
O=C(CBr)[13C](=O)O [Molecule 1] |  | 57% | 7% |  | 54 | 30 | rounding and membrane blabbing | 79% | 70% | 93% | cell death (cells killed) (Panc-2 cells [3]; 80 μM, 8 hours treatment): 96%; cell death (Panc-2 cells [3]; 80 and 100 uM): 95-97%
O=C(O)C(=O)CBr [Molecule 0, 3-Bromopyruvate, reference compound] |  | 80% | 35% |  |  |  |  | about 97% |  |  | cell death in Panc-2 cells (Panc-2 cells [3]; 40 μM, 1 hour treatment): 58%; percent viability of Panc-2 cells (Panc-2 cells [3]; 40 μM, 8 hours treatment): 24%; cell death (cells killed) (Panc-2 cells [3]; 80 μM, 8 hours treatment): 100%; cell morphology (Panc-2 cells [4]; 40, 80 and 100 μM): change in morphology
O=C(O)C(=O)CBr [Molecule 7, 3-Bromopyruvate, reference compound] |  | 79% | 64% |  |  |  | rounding and membrane blabbing |  | about 43% | about 74% | percent viability of Panc-2 cells (Panc-2 cells [3]; 40 μM, 1 hour treatment): about 67%; percent viability of Panc-2 cells (Panc-2 cells [3]; 40 μM, 8 hours treatment): about 46%; percent viability of Panc-2 cells (Panc-2 cells [3]; 80 μM, 1 hour treatment): about 10%; percent viability of Panc-2 cells (Panc-2 cells [3]; 100 μM, 1 hour treatment): about 4%
